Laboratory results as given in ChEMBL document CHEMBL4033700, “From a novel HTS hit to potent, selective, and orally bioavailable KDM5 inhibitors” (Bioorg Med Chem Lett, 2017).
pEC50, pIC50: −log10 of the molar value. Converted amounts (≈) assume the structure as drawn. One block for each compound: values may come before it.

Columns and labels:
[1] = molecular target: Lysine-specific demethylase 3B (Homo sapiens, UniProt Q7LBC6); assay: Inhibition of recombinant human N-terminal FLAG-tagged KDM3B expressed in baculovirus infected Sf9 insect cells using H3K9me1 peptide as substrate after 30 to 45 mins by TR-FRET assay
[2] = molecular target: Lysine-specific histone demethylase 1A (Homo sapiens, UniProt O60341); assay: Inhibition of KDM1A (unknown origin)
[3] = molecular target: T1, Lysine-specific demethylase 5A (Homo sapiens, UniProt P29375); assay: Inhibition of KDM5A in human PC9 cells assessed as increase in H3K4me3 level after 5 days by mass-spectrometric method; type: cell-based
[4] = molecular target: T2, Lysine-specific demethylase 2B (Homo sapiens, UniProt Q8NHM5); assay: Inhibition of recombinant human N-terminal FLAG-tagged KDM2B expressed in baculovirus infected Sf9 insect cells using H3K36me2 peptide as substrate after 30 to 45 mins by TR-FRET assay
T2 sequence (Q8NHM5 whole entry): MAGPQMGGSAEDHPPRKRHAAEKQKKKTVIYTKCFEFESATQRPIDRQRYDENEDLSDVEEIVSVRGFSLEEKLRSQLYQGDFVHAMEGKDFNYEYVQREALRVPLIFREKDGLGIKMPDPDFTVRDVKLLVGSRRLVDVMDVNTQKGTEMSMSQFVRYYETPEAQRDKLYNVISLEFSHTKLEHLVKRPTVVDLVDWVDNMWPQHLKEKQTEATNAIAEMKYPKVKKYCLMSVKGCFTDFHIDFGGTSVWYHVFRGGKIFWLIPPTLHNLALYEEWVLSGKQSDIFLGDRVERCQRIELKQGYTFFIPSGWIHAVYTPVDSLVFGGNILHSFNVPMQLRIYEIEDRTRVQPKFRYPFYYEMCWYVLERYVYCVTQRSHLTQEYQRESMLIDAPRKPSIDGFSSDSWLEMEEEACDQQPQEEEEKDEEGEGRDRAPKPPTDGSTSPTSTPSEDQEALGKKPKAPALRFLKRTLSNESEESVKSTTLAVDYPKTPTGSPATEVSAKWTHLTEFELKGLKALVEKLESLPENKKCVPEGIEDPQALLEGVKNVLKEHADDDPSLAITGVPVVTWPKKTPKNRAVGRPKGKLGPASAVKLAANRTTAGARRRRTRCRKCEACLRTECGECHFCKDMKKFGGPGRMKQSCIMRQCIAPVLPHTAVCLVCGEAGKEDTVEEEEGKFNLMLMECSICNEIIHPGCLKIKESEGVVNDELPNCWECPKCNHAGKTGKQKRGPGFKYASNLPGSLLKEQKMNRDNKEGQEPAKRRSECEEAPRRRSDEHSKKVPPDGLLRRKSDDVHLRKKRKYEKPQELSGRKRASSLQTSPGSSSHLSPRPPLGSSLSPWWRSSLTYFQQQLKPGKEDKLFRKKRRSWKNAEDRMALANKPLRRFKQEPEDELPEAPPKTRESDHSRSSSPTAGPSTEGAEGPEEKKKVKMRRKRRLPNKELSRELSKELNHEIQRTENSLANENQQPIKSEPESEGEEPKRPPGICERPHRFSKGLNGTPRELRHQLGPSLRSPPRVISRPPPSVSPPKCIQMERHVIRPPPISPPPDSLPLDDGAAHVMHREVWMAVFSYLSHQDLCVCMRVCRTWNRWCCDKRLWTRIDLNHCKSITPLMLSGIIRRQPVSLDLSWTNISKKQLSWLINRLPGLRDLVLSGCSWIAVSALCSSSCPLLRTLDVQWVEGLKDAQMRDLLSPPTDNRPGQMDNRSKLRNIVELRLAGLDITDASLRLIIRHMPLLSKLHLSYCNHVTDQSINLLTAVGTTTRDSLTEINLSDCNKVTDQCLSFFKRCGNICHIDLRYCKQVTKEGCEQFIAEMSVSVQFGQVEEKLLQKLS

[5] = molecular target: Histone lysine demethylase PHF8 (Homo sapiens, UniProt Q9UPP1); assay: Inhibition of recombinant human N-terminal FLAG-tagged KDM7B expressed in baculovirus infected Sf9 insect cells using H3K9me1 peptide as substrate after 30 to 45 mins by TR-FRET assay
[6] = molecular target: T1, Lysine-specific demethylase 5A; assay: Inhibition of recombinant human N-terminal FLAG-tagged KDM5A expressed in baculovirus infected Sf9 insect cells using H3K4me3 peptide as substrate after 30 to 45 mins by TR-FRET assay
[7] = Lipophilicity, log D of the compound at pH 7.4; type: physicochemical; settings: buffer
[8] = molecular target: Lysine-specific demethylase 6A (Homo sapiens, UniProt O15550); assay: Inhibition of recombinant human N-terminal FLAG-tagged KDM6A expressed in baculovirus infected Sf9 insect cells using H3K27me3 peptide as substrate after 30 to 45 mins by TR-FRET assay
[9] = Kinetic solubility of the compound; type: physicochemical; settings: read-out: Kinetic_solubility
[10] = molecular target: T3, Lysine-specific demethylase 4C (Homo sapiens, UniProt Q9H3R0); assay: Inhibition of recombinant human N-terminal FLAG-tagged KDM4C expressed in baculovirus infected Sf9 insect cells using H3K9me3 peptide as substrate after 30 to 45 mins by TR-FRET assay
T3 sequence (Q9H3R0 whole entry): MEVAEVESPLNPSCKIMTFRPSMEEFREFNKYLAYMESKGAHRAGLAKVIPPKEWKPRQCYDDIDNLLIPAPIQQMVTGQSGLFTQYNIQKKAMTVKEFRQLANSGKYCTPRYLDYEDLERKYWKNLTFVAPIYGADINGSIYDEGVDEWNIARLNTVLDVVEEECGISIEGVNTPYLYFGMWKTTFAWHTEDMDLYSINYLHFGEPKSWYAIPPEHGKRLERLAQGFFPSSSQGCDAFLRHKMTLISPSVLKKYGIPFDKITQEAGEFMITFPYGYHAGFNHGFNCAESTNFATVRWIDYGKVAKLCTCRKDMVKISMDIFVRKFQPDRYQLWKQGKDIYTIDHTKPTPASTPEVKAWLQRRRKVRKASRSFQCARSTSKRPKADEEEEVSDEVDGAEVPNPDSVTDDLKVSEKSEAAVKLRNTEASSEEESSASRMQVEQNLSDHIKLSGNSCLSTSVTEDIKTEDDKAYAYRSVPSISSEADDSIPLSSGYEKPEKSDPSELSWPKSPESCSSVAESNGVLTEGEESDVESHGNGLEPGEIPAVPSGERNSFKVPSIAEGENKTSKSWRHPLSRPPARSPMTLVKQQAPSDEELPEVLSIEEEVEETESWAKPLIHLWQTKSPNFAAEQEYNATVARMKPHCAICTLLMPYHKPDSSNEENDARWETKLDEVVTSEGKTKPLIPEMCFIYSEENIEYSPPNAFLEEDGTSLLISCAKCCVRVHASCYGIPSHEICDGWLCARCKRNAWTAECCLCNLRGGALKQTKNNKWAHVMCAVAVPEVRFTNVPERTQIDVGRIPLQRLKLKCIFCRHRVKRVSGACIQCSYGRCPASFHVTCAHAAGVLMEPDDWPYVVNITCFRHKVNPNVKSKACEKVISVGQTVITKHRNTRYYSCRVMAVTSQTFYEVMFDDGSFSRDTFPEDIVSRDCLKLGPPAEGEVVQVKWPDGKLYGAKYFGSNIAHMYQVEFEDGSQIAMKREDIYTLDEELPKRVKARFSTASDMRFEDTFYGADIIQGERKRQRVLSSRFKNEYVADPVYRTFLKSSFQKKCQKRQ

[11] = Protein binding in human plasma; type: ADME, cell-free; settings: read-out: PPB (converted)
[12] = Hepatic clearance in rat liver microsomes; type: ADME, microsome
[13] = Half-life in CD-1 mouse plasma at 1 mg/kg, iv or 5 mg/kg, po; type: ADME, organism-based
[14] = Hepatic clearance in mouse hepatocytes; type: ADME, cell-based, Hepatocyte
[15] = Protein binding in rat plasma; type: ADME, cell-free; settings: read-out: PPB (converted)
[16] = Oral bioavailability in CD-1 mouse at 5 mg/kg; type: ADME, organism-based; settings: in vivo
[17] = Clearance in CD-1 mouse plasma at 1 mg/kg, iv or 5 mg/kg, po; type: ADME, organism-based
[18] = Volume of distribution in CD-1 mouse plasma at 1 mg/kg, iv or 5 mg/kg, po; type: ADME, organism-based
[19] = Hepatic clearance in human liver microsomes; type: ADME, microsome
[20] = Protein binding in mouse plasma; type: ADME, cell-free; settings: read-out: PPB (converted)
[21] = Hepatic clearance in human hepatocytes; type: ADME, cell-based, Hepatocyte
[22] = Hepatic clearance in mouse liver microsomes; type: ADME, microsome
[23] = Hepatic clearance in rat hepatocytes; type: ADME, cell-based, Hepatocyte

T1 sequence (P29375 whole entry): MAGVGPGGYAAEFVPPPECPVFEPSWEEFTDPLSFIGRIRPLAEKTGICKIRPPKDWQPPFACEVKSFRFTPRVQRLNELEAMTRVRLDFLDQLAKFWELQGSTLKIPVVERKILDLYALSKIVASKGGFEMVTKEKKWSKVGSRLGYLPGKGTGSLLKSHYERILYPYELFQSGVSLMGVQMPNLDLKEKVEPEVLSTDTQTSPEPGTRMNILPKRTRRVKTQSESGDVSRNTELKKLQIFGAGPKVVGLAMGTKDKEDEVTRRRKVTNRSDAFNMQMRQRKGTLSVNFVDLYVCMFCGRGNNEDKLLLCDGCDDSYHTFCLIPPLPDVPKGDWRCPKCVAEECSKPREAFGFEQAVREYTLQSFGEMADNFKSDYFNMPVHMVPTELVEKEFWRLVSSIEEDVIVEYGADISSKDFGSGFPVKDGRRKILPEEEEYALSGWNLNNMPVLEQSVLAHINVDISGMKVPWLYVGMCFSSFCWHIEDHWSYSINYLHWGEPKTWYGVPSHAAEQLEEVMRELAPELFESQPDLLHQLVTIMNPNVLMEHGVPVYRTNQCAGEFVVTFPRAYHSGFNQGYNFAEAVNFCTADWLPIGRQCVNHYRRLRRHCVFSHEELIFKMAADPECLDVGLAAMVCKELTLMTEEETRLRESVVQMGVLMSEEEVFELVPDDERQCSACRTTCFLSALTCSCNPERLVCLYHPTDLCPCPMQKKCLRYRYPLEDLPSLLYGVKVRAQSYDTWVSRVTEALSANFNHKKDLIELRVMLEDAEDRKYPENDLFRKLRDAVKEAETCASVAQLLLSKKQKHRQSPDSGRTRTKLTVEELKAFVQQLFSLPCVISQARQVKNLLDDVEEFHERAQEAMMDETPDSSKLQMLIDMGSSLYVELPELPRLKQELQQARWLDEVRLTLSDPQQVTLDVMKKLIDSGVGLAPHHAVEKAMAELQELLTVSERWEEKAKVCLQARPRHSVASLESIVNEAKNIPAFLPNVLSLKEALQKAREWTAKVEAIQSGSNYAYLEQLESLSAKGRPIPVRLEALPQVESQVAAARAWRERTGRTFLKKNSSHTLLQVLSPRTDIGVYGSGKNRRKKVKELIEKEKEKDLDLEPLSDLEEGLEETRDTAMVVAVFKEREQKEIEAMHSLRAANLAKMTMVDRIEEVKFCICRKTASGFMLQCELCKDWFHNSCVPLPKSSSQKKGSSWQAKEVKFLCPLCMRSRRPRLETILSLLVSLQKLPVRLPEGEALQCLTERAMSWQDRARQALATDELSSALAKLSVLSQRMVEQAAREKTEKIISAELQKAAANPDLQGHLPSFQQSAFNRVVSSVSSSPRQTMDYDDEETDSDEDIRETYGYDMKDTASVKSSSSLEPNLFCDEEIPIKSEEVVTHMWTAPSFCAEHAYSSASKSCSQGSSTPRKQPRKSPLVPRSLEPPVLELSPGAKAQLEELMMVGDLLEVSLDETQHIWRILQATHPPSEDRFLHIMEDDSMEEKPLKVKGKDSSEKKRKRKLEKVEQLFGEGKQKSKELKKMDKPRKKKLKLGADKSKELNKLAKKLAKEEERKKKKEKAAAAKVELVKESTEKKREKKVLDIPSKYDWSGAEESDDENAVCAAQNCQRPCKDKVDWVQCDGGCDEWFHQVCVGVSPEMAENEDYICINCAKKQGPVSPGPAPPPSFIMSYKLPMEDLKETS
Histone lysine demethylase PHF8, sequence (Q9UPP1 whole entry): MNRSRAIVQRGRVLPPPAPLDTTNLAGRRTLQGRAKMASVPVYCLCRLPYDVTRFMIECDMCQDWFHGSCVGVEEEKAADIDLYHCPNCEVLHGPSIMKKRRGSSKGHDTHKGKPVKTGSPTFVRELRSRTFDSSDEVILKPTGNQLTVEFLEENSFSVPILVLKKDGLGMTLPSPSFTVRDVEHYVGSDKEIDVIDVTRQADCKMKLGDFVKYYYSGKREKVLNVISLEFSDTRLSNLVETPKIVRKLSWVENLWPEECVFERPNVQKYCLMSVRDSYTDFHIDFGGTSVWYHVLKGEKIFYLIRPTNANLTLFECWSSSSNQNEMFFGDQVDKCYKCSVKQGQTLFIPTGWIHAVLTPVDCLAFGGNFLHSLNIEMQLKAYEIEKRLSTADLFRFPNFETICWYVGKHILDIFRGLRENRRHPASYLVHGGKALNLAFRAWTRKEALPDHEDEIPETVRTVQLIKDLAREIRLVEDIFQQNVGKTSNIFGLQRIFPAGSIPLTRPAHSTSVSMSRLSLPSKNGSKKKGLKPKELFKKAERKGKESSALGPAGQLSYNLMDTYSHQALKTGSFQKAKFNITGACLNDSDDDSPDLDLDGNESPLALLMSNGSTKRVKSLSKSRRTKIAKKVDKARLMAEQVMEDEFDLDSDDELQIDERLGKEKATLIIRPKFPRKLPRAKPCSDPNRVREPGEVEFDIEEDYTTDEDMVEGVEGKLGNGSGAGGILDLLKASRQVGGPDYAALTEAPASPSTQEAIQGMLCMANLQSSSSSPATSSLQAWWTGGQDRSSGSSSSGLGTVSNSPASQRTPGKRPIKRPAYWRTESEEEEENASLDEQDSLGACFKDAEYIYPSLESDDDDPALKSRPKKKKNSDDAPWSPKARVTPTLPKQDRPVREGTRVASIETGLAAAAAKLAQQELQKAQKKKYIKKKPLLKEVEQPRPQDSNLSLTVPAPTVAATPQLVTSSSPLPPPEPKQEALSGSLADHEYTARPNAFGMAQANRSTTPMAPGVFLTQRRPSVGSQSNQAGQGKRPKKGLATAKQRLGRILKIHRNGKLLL
Lysine-specific demethylase 3B, sequence (Q7LBC6 whole entry): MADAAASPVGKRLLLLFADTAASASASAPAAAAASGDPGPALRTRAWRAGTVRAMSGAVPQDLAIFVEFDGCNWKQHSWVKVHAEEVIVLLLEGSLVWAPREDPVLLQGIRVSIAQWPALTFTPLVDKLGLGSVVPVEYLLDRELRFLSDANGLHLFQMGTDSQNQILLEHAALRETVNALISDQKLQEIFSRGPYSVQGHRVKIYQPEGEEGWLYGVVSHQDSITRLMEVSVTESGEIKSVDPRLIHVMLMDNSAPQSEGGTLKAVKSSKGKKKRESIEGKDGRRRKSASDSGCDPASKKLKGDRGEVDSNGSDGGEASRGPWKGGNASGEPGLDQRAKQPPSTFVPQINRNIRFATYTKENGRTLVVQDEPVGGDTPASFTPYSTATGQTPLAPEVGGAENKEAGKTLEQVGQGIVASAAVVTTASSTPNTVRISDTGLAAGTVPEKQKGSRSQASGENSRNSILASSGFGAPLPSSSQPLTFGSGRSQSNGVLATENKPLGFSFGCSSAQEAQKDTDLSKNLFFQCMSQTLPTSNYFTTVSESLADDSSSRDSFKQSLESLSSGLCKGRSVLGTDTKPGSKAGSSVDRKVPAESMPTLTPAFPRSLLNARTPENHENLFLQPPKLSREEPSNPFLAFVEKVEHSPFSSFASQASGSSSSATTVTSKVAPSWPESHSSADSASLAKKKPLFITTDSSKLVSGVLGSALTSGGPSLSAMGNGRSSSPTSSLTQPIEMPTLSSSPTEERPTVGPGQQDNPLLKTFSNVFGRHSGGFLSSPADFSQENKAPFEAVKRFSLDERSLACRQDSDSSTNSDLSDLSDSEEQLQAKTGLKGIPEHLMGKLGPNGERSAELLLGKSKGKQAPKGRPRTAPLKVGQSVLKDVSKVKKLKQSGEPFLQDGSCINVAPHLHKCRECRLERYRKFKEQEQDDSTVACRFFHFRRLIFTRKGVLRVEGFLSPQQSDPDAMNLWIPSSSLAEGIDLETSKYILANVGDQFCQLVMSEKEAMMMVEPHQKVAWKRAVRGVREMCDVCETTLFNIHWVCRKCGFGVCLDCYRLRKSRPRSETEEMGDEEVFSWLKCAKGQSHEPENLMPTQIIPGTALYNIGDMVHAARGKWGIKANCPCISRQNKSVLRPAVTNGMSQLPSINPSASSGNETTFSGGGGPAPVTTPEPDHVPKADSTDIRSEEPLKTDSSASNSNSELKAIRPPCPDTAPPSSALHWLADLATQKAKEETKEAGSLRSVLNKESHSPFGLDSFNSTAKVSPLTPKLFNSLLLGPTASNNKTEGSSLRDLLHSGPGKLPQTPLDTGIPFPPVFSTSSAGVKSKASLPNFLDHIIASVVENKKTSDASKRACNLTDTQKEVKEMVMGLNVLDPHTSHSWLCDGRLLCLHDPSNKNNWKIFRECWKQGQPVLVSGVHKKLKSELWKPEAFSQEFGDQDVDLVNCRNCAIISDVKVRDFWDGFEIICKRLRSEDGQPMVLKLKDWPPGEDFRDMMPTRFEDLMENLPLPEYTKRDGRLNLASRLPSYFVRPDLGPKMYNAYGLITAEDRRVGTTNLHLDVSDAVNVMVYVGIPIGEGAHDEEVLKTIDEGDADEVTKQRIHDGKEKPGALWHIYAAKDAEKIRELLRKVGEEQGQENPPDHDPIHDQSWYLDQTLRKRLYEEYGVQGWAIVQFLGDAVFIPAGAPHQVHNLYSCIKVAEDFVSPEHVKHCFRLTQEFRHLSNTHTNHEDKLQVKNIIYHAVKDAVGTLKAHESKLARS

pIC50 [1]: < 4.60
pIC50 [2]: < 4.60
pEC50 ([3]; read-out: EC50): < 4.52
pIC50 [4]: < 4.60
pIC50 [5]: < 4.60
pIC50 [6]: 6.59
logD [7]: 2.8
pIC50 [8]: < 4.60
solubility kinetic [9]: 56 µM (≈ 21.2 µg/mL)
pIC50 [10]: < 4.60
SMILES: Cc1cc(-c2cnn(C)c2)cc(C2CCN(C(=O)c3cc(C(C)C)n[nH]3)C2)n1 (racemic)

fraction unbound [11]: 0.045
CLhep predicted [12]: 37 mL/min/kg
pEC50 [3]: < 4.52
half-life [13]: 18 min
CLhep predicted [14]: 66 mL/min/kg
fraction unbound [15]: 0.027
bioavailability [16]: 94%
clearance [17]: 99.9 mL/min/kg
Vd [18]: 2.1 L/kg
CLhep predicted [19]: 7 mL/min/kg
fraction unbound [20]: 0.043
CLhep predicted [21]: 12 mL/min/kg
pIC50 [6]: 6.80
CLhep predicted [22]: 69 mL/min/kg
CLhep predicted [23]: 39 mL/min/kg
pIC50 [10]: 4.88
SMILES: Cc1cc(-c2cnn(C)c2)cc(C2CCN(C(=O)c3cc(C(C)C)n[nH]3)C2)n1 (stereo in doubt; 9)
